In patent US20150141523A1, “COMPOUNDS FOR USE IN THE TREATMENT OF AUTOIMMUNE INFLAMMATORY DISEASE” (Venantius Limited, priority 2012, published 2015):

Experiments:
[1] = system: β-hexosaminidase release from RBL-2H3 cells; settings: RBL-2H3 cells stimulated by calcium ionophore A23187; Bioorg. Med. Chem. Lett. 19(20), 2009; cited from earlier work
[2] = system: CD-1 mice; assay: Sheep red blood cell (SRBC) delayed-type hypersensitivity mouse paw swelling; type: in vivo; settings: 30 mg/kg; vehicle 89%
Procedure: The sheep red blood cells were first cleaned and counted as follows. 5 mls of the SRBC were spun down in a centrifuge at 3000 rpm for 10 minutes. The supernatant was removed and phosphate buffered saline (PBS), pH 7.4 added to the pellet. The pellet was mixed with the PBS buffer (5 mls) and spun down in a centrifuge at 3000 rpm for 10 minutes. The pellet was washed twice more with PBS buffer as described above. The pellet was then reconstituted in 5 mls of PBS buffer following the final wash. 10 μl of a 1 in 200 dilution of the sample of reconstituted sheep red blood cells (in trypan blue stain) was used to fill the counting chamber of a haemacytometer and the number of sheep red blood cells counted.
Male CD-1 mice (30-40 gms) were sensitised on day zero. The negative control group was sensitised with 100 μl PBS intraperitoneally (i.p.), while the positive control group and drug treated groups were sensitised with 1×10^7 SRBC (100 μl i.p.).
Animals were challenged 5 days later with SRBC. The SRBC were cleaned and counted as described above. Animals anaesthetised with halothane were challenged s.c. by injecting SRBC (3×10^8 cells in 20 μl) into the right hind paws and PBS (20 μl) into the left hind paws. […]
The difference in paw swelling between the saline-injected and SRBC-challenged contralateral paw of each mouse was calculated by measuring paw volume (mls) using a plethysmometer. […]

[3] = system: BalbC mice; assay: Arachidonic acid mouse ear oedema model; type: in vivo; settings: 300 μg/ear in acetone, topical; arachidonic acid alone 86%
Procedure: The arrachidonic mouse ear oedema model is an acute inflammation model based on activation of ecosanoid pathways. The mouse ear oedema model was performed using BalbC mice (25-35 g), of either sex. The ear was treated by the topical application (10 μl) of solvent (acetone 100%) or test drug (300 μg/ear in acetone) or Indomethacin (300 μg/ear in acetone). After one hour, oedema was induced by the topical application of arachidonic acid (10 μl at 0.4 g/ml in acetone). The width of each ear was measured, both before and 60 min after the induction of oedema, using a micrometer screw gauge. Ear oedema was calculated by comparing the ear width before and after induction of oedema and expressed as percentage normal. Animals were killed using CO2, without recovering from sedation.

[4] = system: Balb/C mice; assay: Oxazolone contact hypersensitivity (CHS) mouse ear swelling; type: in vivo; settings: P>0.05
Procedure: Female Balb/C mice (30-40 gms) were sensitised on day 0 with 20 μl of 2% oxazolone in acetone on each ear (10 μl on the inner and outer aspects of both ears). All mice were challenged on day 5 with 20 μl of 2% oxazolone in acetone only on the right ear; again, 10 μl on both the inner and outer aspects of the ear. Immediately following this, the mice were treated with test compound. The test compound was administered in exactly the same way as the oxazolone, with 10 μl on each side of the right ear. […] For the […] group, acetone was administered. All animals were killed 24 hrs later and the percentage increase in ear swelling was calculated. This was done in two ways. The thickness of the unchallenged left ear and the challenged right ear were measured using a micrometer caliper (μm). The increase in weight of both ears was also measured using a 5 mm biopsy punch (mgs). The percentage increase in oedema was then calculated for both weight and thickness by expressing the difference between the unchallenged left ear and the challenged right ear as a percentage of the left ear control.

In the case of `O[C@@H]1c2ccccc2C[C@]1(Cc1ccccc1)C1=Cc2ccccc2C1` (mixture of isomers) [Compound 5, (R,S and SR)2-Benzyl-2,3-dihydro-1H,1′H-2,2′-biinden-1-ol], the “inhibition of β-hexosaminidase release” value [1] is given as “dose-dependant inhibition”, the SRBC paw swelling [2] is given as 60% and the “ear swelling (increase in ear thickness)” value [3] is given as 62%. For the same compound, the “effect on oxazolone mouse ear swelling” value [4] was “no significant effect”.
For `O[C@H]1c2ccccc2C[C@]1(Cc1ccccc1)C1=Cc2ccccc2C1` (mixture of isomers) [Compound 6, (S,S and RR)2-Benzyl-2,3-dihydro-1H,1′H-2,2′-biinden-1-ol], the SRBC paw swelling [2] was 52%, the “ear swelling (increase in ear thickness)” value [3] was 50% and the “effect on oxazolone mouse ear swelling” value [4] was “no significant effect”.
